Values quoted from earlier work in patent publication US7718642B2, “AIDS prophylactic lubricating composition” (priority 1993, dated 2010).

Key:
[1] = in vivo
[2] = tested on: sperm cells; details: diffusion into cervical mucous
[3] = tested on: viruses
[4] = tested on: HIV
[5] = previous studies (Int J STD & AIDS); read-out: CC50 value (50% toxic dose)
[6] = tested on: HIV; details: used as contraceptive during sexual relations; J. Kreiss et al, JAMA 1992

Row | Molecule | Undesirable side effects [1] | Concentration that restricts penetration of sperm cells and causes loss of mobility [2] | Concentration that effectively destroys the envelope of viruses [3] | selectivity value ([4]; CC50/IC50, previous studies (Int J STD & AIDS)) | IC50 ([4]; previous studies (Int J STD & AIDS), read-out: IC50 value (50% inhibitory dose)) [nM] | CC50 [5] [nM] | Prevention of HIV transmission [6]
1 | [H]/N=C(\N/C(=N/[H])NCCCCCCNC(=N)NC(=N)Nc1ccc(Cl)cc1)Nc1ccc(Cl)cc1 [chlorhexidine] | does not produce any undesirable side effects | above 0.1% | above 0.1% | 5.2 | 250 | 1300 | –
2 | nonoxynol-9 | – | – | – | – | – | – | did not prevent HIV transmission
